In test [1] the test system is IL-17A-induced G-CSF production in human normal keratinocyte (NHK). Briefly: NHK assay: IL-17A-induced G-CSF production in normal human keratinocytes. The class given is cell-based. The conditions noted are these: 24 h, IL-17A 5 ng/mL, G-CSF by HTRF, average if tested more than once. In short, it runs like this:
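Compound titrations are first mixed with recombinant human IL-17A for 1 h at room temperature. The mixture goes onto adult normal human keratinocytes (final IL-17A 5 ng/mL, 5% FBS, 0.2% DMSO) for 24 h at 37 °C. Secreted G-CSF is then measured by HTRF and IC50 fitted.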

In test [2] the target is IL-17A(FLAG-Tagged): IL-17RA(His-Tagged) binding (Homo sapiens, UniProt Q16552, K93Q). The test can be described thus: IL-17A(FLAG-tagged):IL-17RA(His-tagged) binding disruption Eu-HTRF assay, Protocol 2. The conditions noted are these: FLAG-IL-17A 1 nM; average if tested more than once. An excerpt: IL-17A(FLAG-Tagged): IL-17RA(His-Tagged) Binding Disruption Eu-HTRF Assay
UniProt Q16552, sequence (Q16552 with tags, fused parts or gaps K93Q): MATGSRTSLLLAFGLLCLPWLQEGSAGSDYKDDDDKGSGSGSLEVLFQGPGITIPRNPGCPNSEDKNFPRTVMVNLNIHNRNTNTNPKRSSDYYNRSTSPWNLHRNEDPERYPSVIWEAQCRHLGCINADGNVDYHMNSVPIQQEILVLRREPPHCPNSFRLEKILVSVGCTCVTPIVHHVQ
An antibody directed against the FLAG tag of IL-17A (SEQ ID NO: 1) is labeled with the HTRF donor chromophore (Europium-cryptate). IL-17A is present as a dimer that is “locked into” this quaternary structure due to the formation of loop-spanning […] disulfide bridges. The construct of IL-17RA used in the assay excludes the […] portion of the receptor and is fused to a C-terminal 10×His tag (SEQ ID NO:2). An antibody directed against the His tag of the IL-17RA chimera is labeled with the HTRF acceptor chromophore (“D2”). The fluorescence-resonance energy transfer (FRET) depends on the vicinity of the donor chromophore to the acceptor, and interruption of the binding between the IL-17A and IL-17RA causes the reduction/loss of FRET. Therefore, this assay allows to evaluate the compound effect on the binding IL-17A and IL-17RA by monitoring the fluorescence intensity of donor vs acceptor. The assay was run using either Protocol 1 or Protocol 2 as described below.
Protocol 2. 40 nl of 2-fold serial diluted compound solution for total 22 dilution points is added into each well of a 1536-well, white, low-volume, non-binding plate (Greiner #782904), then 2 μl of FLAG tagged IL-17A at 2×final concentration (1 nM) in solution of PBS+0.01% Triton-X100 is added to each well. The assay plate is briefly centrifuged then incubated for 1 h at rt. A mixed solution is prepared containing 2×5 nM 10HIS×IL-17RA, 2×2.5 nM Eu-anti-FLAG (CISBIO), 2×5 nM D2-anti-HIS (CISBIO) in PBS+0.01% Triton-X100+200 mM Potassium Fluoride (Sigma 60238) and 2 μl of mix is added to each well of the assay plate. The plate is briefly centrifuged then incubated for 2 h at rt. The HTRF intensities at the wavelength of donor (615 nm) and acceptor (665 nm) are measured using BMG Pherastar. The ratio between intensities at two wavelengths is calculated and plotted against the compound concentration and the data is fitted to a one-site competition model to yield IC50 of the compound.
On the technique in general: In TR-FRET formats the signal depends on donor and acceptor labels being close together.

Usually IC50 stands for the concentration needed to halve the response being measured. A high value points to weaker potency. In the case of `COC[C@H](c1cnn2cc(C(CC(C)(C)C(C)(F)F)NC(=O)c3nonc3C3CC3)nc2c1)N1CC(F)(F)CNC1=O` (single isomer, unassigned) [Example 68, 4-Cyclopropyl-N—((S*)-1-(7-((S)-1-(5,5-difluoro-2-oxotetrahydropyrimidin-1(2H)-yl)-2-methoxyethyl)imidazo[1,2-b]pyridazin-2-yl)-4,4-difluoro-3,3-dimethylpentyl)-1,2,5-oxadiazole-3-carboxamide], the IC50 is less than 50 nM in test [1] (Homo sapiens, Keratinocyte) and less than 50 nM in test [2].
For the compound `COC[C@H](c1cnn2cc([C@@H](NC(=O)c3nonc3C)C(C3CC3)C3CC3)nc2c1)N1CC(F)(F)CNC1=O` [Example 102, N—((S)-2,2-Dicyclopropyl-1-(7-((S)-1-(5,5-difluoro-2-oxotetrahydropyrimidin-1(2H)-yl)-2-methoxyethyl)imidazo[1,2-b]pyridazin-2-yl)ethyl)-4-methyl-1,2,5-oxadiazole-3-carboxamide], the IC50 is less than 50 nM in test [1] (Homo sapiens, Keratinocyte) and less than 50 nM in test [2].
Regarding `COC[C@H](c1cnn2cc(C(CCC3(C(F)(F)F)CC3)NC(=O)c3nonc3C)nc2c1)N1CC(F)(F)CNC1=O` (single isomer, unassigned) [Example 126, N—((S*)-1-(7-((S)-1-(5,5-Difluoro-2-oxotetrahydropyrimidin-1(2H)-yl)-2-methoxyethyl)imidazo[1,2-b]pyridazin-2-yl)-3-(1-(trifluoromethyl)cyclopropyl)propyl)-4-methyl-1,2,5-oxadiazole-3-carboxamide], the IC50 in test [1] and in test [2] was less than 50 nM in each case.
Turning to “N—((S)-1-(7-((S)-2-Cyclopropoxy-1-(5,5-difluoro-2-oxotetrahydropyrimidin-1(2H)-yl-4,4,6,6-d4)ethyl)imidazo[1,2-b]pyridazin-2-yl)-5,5,5-trifluoro-4,4-dimethylpentyl)-1,2,5-oxadiazole-3-carboxamide trifluoroacetate [Example 131]”, the results for the 50% inhibitory concentration (IC50) in test [1] and in test [2] were more than 100 nM and less than 50 nM, respectively.
For the compound `COC[C@H](c1cnn2cc([C@@H](NC(=O)c3nonc3C)[C@H](C)OC(C)(C)C(F)(F)F)nc2c1)N1CC(F)(F)CNC1=O` (relative stereo) [Example 61, N-((1R*,2S*)-1-(7-((S)-1-(5,5-Difluoro-2-oxotetrahydropyrimidin-1(2H)-yl)-2-methoxyethyl)imidazo[1,2-b]pyridazin-2-yl)-2-((1,1,1-trifluoro-2-methylpropan-2-yl)oxy)propyl)-4-methyl-1,2,5-oxadiazole-3-carboxamide], the IC50 in test [1] (Homo sapiens, Keratinocyte) is more than 100 nM; in test [2] it was more than 100 nM.
Turning to `[2H]C1([2H])NC(=O)N([C@H](COC2CC2)c2cnn3cc([C@@H](NC(=O)c4nocc4CC(F)(F)F)C4CCC(F)(F)CC4)nc3c2)C([2H])([2H])C1(F)F` [Example 107, N—((S)-(7-((S)-2-Cyclopropoxy-1-(5,5-difluoro-2-oxotetrahydropyrimidin-1(2H)-yl-4,4,6,6-d4)ethyl)imidazo[1,2-b]pyridazin-2-yl)(4,4-difluorocyclohexyl)methyl)-4-(2,2,2-trifluoroethyl)isoxazole-3-carboxamide], the IC50 in test [1] (Homo sapiens, Keratinocyte) is less than 50 nM; in test [2], less than 50 nM.
In the case of `COC[C@H](c1cnn2cc([C@@H](NC(=O)c3nonc3C3CC3)[C@H](C)OC3(C(F)(F)F)CC3)nc2c1)N1CC(F)(F)CNC1=O` (relative stereo) [Example 91, 4-Cyclopropyl-N-((1R*,2S*)-1-(7-((S)-1-(5,5-difluoro-2-oxotetrahydropyrimidin-1(2H)-yl)-2-methoxyethyl)imidazo[1,2-b]pyridazin-2-yl)-2-(1-(trifluoromethyl)cyclopropoxy)propyl)-1,2,5-oxadiazole-3-carboxamide], the IC50 is more than 100 nM in test [1] (Homo sapiens, Keratinocyte) and 50 to 100 nM in test [2].
Consider `COC[C@H](c1cnn2cc(C(NC(=O)c3nonc3C)C3C[C@H]4CC[C@H]4C3)nc2c1)N1CC(F)(F)CNC1=O` (single isomer, unassigned) [Example 132, N-((1S*)-((1R,5S)-Bicyclo[3.2.0]heptan-3-yl)(7-((S)-1-(5,5-difluoro-2-oxotetrahydropyrimidin-1(2H)-yl)-2-methoxyethyl)imidazo[1,2-b]pyridazin-2-yl)methyl)-4-methyl-1,2,5-oxadiazole-3-carboxamide], for which the IC50 is less than 50 nM in test [1] (Homo sapiens, Keratinocyte) and less than 50 nM in test [2].
For `Cc1nonc1C(=O)N[C@@H](CCC(C)(C)C(F)(F)F)c1cn2ncc(CN3C[C@@H]4[C@H](CNC3=O)C4(F)F)cc2n1` (relative stereo) [Example 120, N—((S)-1-(7-(((1S*,7R*)-8,8-Difluoro-4-oxo-3,5-diazabicyclo[5.1.0]octan-3-yl)methyl)imidazo[1,2-b]pyridazin-2-yl)-5,5,5-trifluoro-4,4-dimethylpentyl)-4-methyl-1,2,5-oxadiazole-3-carboxamide], the IC50 in test [1] (Homo sapiens, Keratinocyte) was more than 100 nM; in test [2] it was more than 100 nM.
Turning to `COc1nonc1C(=O)N[C@H](c1cn2ncc([C@@H](COC3CC3)N3CC(F)(F)CNC3=O)cc2n1)C1CCC(F)(F)CC1` [Example 77, N—((S)-(7-((S)-2-Cyclopropoxy-1-(5,5-difluoro-2-oxotetrahydropyrimidin-1(2H)-yl)ethyl)imidazo[1,2-b]pyridazin-2-yl)(4,4-difluorocyclohexyl)methyl)-4-methoxy-1,2,5-oxadiazole-3-carboxamide], the IC50 in test [1] (Homo sapiens, Keratinocyte) was less than 50 nM; in test [2], less than 50 nM.
Take `[2H]C1([2H])NC(=O)N([C@H](COC)c2cnn3cc([C@H](CCC(C)(C)C(F)(F)F)NC(=O)c4nonc4C(F)(F)F)nc3c2)C([2H])([2H])C1(F)F` [Example 83, N—((S)-1-(7-((S)-1-(5,5-Difluoro-2-oxotetrahydropyrimidin-1(2H)-yl-4,4,6,6-d4)-2-methoxyethyl)imidazo[1,2-b]pyridazin-2-yl)-5,5,5-trifluoro-4,4-dimethylpentyl)-4-(trifluoromethyl)-1,2,5-oxadiazole-3-carboxamide]: the IC50 in test [1] (Homo sapiens, Keratinocyte) was less than 50 nM; in test [2] it was less than 50 nM.
In the case of `COC[C@H](c1cnn2cc([C@@H](NC(=O)c3nonc3C)C3CCC(F)(F)CC3)nc2c1)N1CC(F)(F)C(F)(F)CNC1=O` [Example 123, N—((S)-(4,4-Difluorocyclohexyl)(7-((S)-2-methoxy-1-(5,5,6,6-tetrafluoro-2-oxo-1,3-diazepan-1-yl)ethyl)imidazo[1,2-b]pyridazin-2-yl)methyl)-4-methyl-1,2,5-oxadiazole-3-carboxamide], the IC50 in test [1] (Homo sapiens, Keratinocyte) was 50 to 100 nM; in test [2] it was less than 50 nM.
In the case of `COc1nonc1C(=O)N[C@@H](CCC(C)(C)C(F)(F)F)c1cn2ncc(CN3C[C@@H]4[C@H](CNC3=O)C4(F)F)cc2n1` (relative stereo) [Example 116, N—((S)-1-(7-(((1S*,7R*)-8,8-Difluoro-4-oxo-3,5-diazabicyclo[5.1.0]octan-3-yl)methyl)imidazo[1,2-b]pyridazin-2-yl)-5,5,5-trifluoro-4,4-dimethylpentyl)-4-methoxy-1,2,5-oxadiazole-3-carboxamide], the IC50 in test [1] (Homo sapiens, Keratinocyte) is more than 100 nM; in test [2], 50 to 100 nM.
For `COC[C@H](c1cnn2cc([C@@H](NC(=O)c3nonc3CC(F)(F)F)C3CCC(F)(F)CC3)nc2c1)N1CC(F)(F)CNC1=O` [Example 130, N—((S)-(7-((S)-1-(5,5-Difluoro-2-oxotetrahydropyrimidin-1(2H)-yl)-2-methoxyethyl)imidazo[1,2-b]pyridazin-2-yl)(4,4-difluorocyclohexyl)methyl)-4-(2,2,2-trifluoroethyl)-1,2,5-oxadiazole-3-carboxamide] the same measures were less than 50 nM and less than 50 nM.
Take `[2H]C1([2H])NC(=O)N([C@H](COC)c2cnn3cc([C@@H](NC(=O)c4nonc4C4CC4)C4CCC(F)(F)CC4)nc3c2)C([2H])([2H])C1(F)F` [Example 72, 4-Cyclopropyl-N—((S)-(7-((S)-1-(5,5-difluoro-2-oxotetrahydropyrimidin-1(2H)-yl-4,4,6,6-d4)-2-methoxyethyl)imidazo[1,2-b]pyridazin-2-yl)(4,4-difluorocyclohexyl)methyl)-1,2,5-oxadiazole-3-carboxamide]: the IC50 in test [1] (Homo sapiens, Keratinocyte) was less than 50 nM; in test [2], less than 50 nM.

These data come from US12173007B2, “Imidazopyridazine IL-17 inhibitor compounds” (Janssen Pharmaceutica NV, priority 2021, dated 2024).
